Source: patent US20200022386A1, “METHOD OF PREPARATION OF CA[…]” (PHARCON INC., priority 2018, published 2020)
Converted amounts (≈) assume the structure as drawn.

Experiment: Solubility of cannabinoids / cannabis extract in ethanol
Assay type: physicochemical
Details: organic solvent or mixture, room temperature, ethyl alcohol (solvent named)
Description: Cannabinoids have extremely low water solubility and relatively high solubility in oils and polar organic solvents such as ethanol and propylene glycol. Micro- and nanoemulsions or liposomal formulations where cannabinoids incorporated into lipid phase of the colloidal dispersion can be efficiently used for preparation of cannabis loaded products. Nevertheless, for preparation of beverages with high content of biologically active cannabis components may be complicated since solubility in the oil phase may not be high enough to provide the desired concentration of cannabinoids in the prepared beverage while keeping the product stable and palatable. Additionally, terpenes presented in extract of cannabis, visibly improve solubility of cannabinoids while pure CBD, THC or other cannabinoids have much lower solubility. […] However, since cannabis terpenes are often associated with acrid and unpleasant taste and flavor, it is preferable to use purified cannabinoids with a potency (purity) of 90-100%.
Practically all proposed SNEDS formulations of cannabinoids have oil phase consisting of food oils, mainly mono-di or triglycerides, such as medium chain triglycerides (MCT oil, coconut oil), fish oil, soy oil, olive oil, acetylated mono-and diglycerides, etc. The food oils have excellent safety profile and can provide a reasonable solubility of cannabinoids. […]

## C=C(C)[C@@H]1CCC(C)=C[C@H]1c1c(O)cc(CCCCC)cc1O [CBD, Cannabidiol]
  solubility: 25 to 36 mg/mL (≈ 79.5 to 114 mM)
